Test results published in patent US20040224981A1, “Antibacterial methods and compositions” (priority 2003, published 2004).
Read-outs that look alike come from different tables or passages of the source.

Key:
S. aureus = test: MIC against S. aureus strains and clinical isolates (broth microdilution); format: cell-based, Staphylococcus aureus; conditions: for MIC90: read-out: MIC90; for MIC50: read-out: MIC50
In short: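 Broth microdilution per NCCLS in cation-supplemented Mueller-Hinton broth, final inoculum 5×10^5 CFU/ml from 0.5 McFarland suspensions diluted 1:10. Trays incubated aerobically overnight with quality control strains each run. Checkerboard FIC index: ≦0.5 synergy, >0.5 to 4 additive/indifferent, >4.0 antagonism.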

S. pyogenes = test: MIC against S. pyogenes; format: cell-based, Streptococcus pyogenes
Description: (§1) The MRS inhibitor 4 alone and in combination with mupirocin (mupirocin salt and 1:1 combination) were tested against a collection of Gram-positive pathogens.
S. pyogenes is also a significant skin pathogen and 48 recent clinical isolates were tested for their susceptibility to MRSi compound 5 alone (acetate) and in combination (1:1) with mupirocin (mupirocinate).

[1] = tested on: MRS-resistant mutants of S. aureus; test: Susceptibility (MIC) of MRS-resistant mutants of S. aureus; format: cell-based; conditions: Staphylococcus aureus
Description: MRS-resistant mutants generated in vitro in either serial passage or spontaneous resistance development studies were evaluated for susceptibility to mupirocin alone and in a 1:1 combination with MRSi compound 5.

S. hemolyticus = test: MIC against S. hemolyticus; format: cell-based
Description: as §1
(§2) The MRS inhibitor 8 was also prepared as a fusidate and mupirocinate salt and tested for antibacterial activity against Gram-positive bacteria (Table 3). […] MRSi compound 8 alone and the fusidate and mupirocin salts were active against mupirocin-resistant S. aureus and S. epidermidis and organisms such as E. faecalis that are not susceptible to mupirocin.
(§3) The MRS inhibitor 5 acetate and mupirocin salts were tested against a collection of Gram-positive bacteria.

S. epidermidis = test: MIC against S. epidermidis; format: cell-based
Description: as §1, §2, §3

E. faecalis = test: MIC against E. faecalis; format: cell-based; conditions: for MIC: Enterococcus faecalis, read-out: MIC
[2] = Staphylococcus aureus, oxacillin-susceptible S. aureus, Oxa-S (20)
[3] = Staphylococcus aureus, recent clinical isolates of S. aureus, All (62)
[4] = 48 recent clinical isolates of S. pyogenes
[5] = recent clinical isolates of E. faecalis, ALL (28)

Which MIC90 (S. aureus; Staphylococcus aureus, oxacillin-resistant S. aureus, Oxa-R (42)) does the source give for `C/C(=C\C(=O)OCCCCCCCCC(=O)O)C[C@@H]1OC[C@H](C[C@@H]2O[C@H]2[C@@H](C)[C@H](C)O)[C@@H](O)[C@H]1O` [Mupirocin, Pseudomonic acid A] here?
Its MIC90 is > 8 µg/mL.

What about the MIC (S. aureus; Staphylococcus aureus, oxacillin-resistant S. aureus, Oxa-R (42), read-out: MIC Mode) of the same compound?
Its MIC is 0.12 µg/mL.

What about the MIC50 (S. aureus; [2]) of the same compound?
The MIC50 was 0.12 µg/mL.

What about the MIC90 (S. aureus; [2]) of the same compound?
Its MIC90 is > 8 µg/mL.

What about the MIC (S. aureus; Staphylococcus aureus, oxacillin-susceptible S. aureus, Oxa-S (20), read-out: MIC Mode) of the same compound?
Its MIC is 0.12 µg/mL.

What about the MIC50 (S. aureus; [3]) of the same compound?
The MIC50 was 0.12 µg/mL.

What about the MIC90 (S. aureus; [3]) of the same compound?
The MIC90 was > 8 µg/mL.

And the MIC (S. aureus; Staphylococcus aureus, recent clinical isolates of S. aureus, All (62), read-out: MIC Mode)?
Its MIC is 0.12 µg/mL.

What about the MIC (S. aureus; Table 12, S. aureus 25-670, high level mupirocin-resistant, agent alone) of the same compound?
Its MIC is >128 8 g/mL.

And the MIC50 (S. pyogenes; [4])?
Its MIC50 is 0.12 µg/mL.

And the MIC90 (S. pyogenes; [4])?
Its MIC90 is 0.25 µg/mL.

What about the Mode (MIC) (S. pyogenes; [4]) of the same compound?
The Mode (MIC) was 0.12 µg/mL.

What about the “MIC Range” value (S. pyogenes; 48 recent clinical isolates of S. pyogenes, in µg/mL) of the same compound?
The value was 0.03-0.5.

And the MIC (S. pyogenes; Streptococcus pyogenes, ATCC19615, Table 2, S. pyogenes ATCC 19615, read-out: MIC)?
The MIC was 0.12 µg/mL.

What about the MIC (S. pyogenes; Streptococcus pyogenes, Table 2, S. pyogenes MB143 (macrolide rest.), read-out: MIC) of the same compound?
The MIC was 0.12 µg/mL.

And the MIC (S. pyogenes; Table 3, S. pyogenes ATCC 19615)?
Its MIC is 0.12 µg/mL.

What about the MIC (S. pyogenes; Table 3, S. pyogenes MB143 (macrolide rest.)) of the same compound?
The MIC was 0.12 µg/mL.

What about the MIC (S. pyogenes; Table 4, S. pyogenes ATCC 19615) of the same compound?
Its MIC is 0.12 µg/mL.

What about the MIC (S. pyogenes; Table 4, S. pyogenes MB000143) of the same compound?
The MIC was 0.12 µg/mL.

What about the MIC ([1]; ATCC29213, S. aureus ATCC 29213, metS wild-type) of the same compound?
The MIC was 0.12 µg/mL.

What about the MIC ([1]; S. aureus SP-9B5, metS I57N, V296F) of the same compound?
Its MIC is 0.5 µg/mL.

And the MIC ([1]; S. aureus SP-21A, metS A77V)?
The MIC was 1 µg/mL.

And the MIC ([1]; read-out: MICs ranging, all the MRS-resistant mutants)?
Its MIC is 0.12 to 1 µg/mL.

And the MIC (S. hemolyticus; Table 2, S. hemolyticus NRS50, read-out: MIC)?
The MIC was 0.12 µg/mL.

What about the MIC (S. hemolyticus; Table 2, S. hemolyticus NRS116, read-out: MIC) of the same compound?
Its MIC is 0.25 µg/mL.

And the MIC (S. hemolyticus; Table 3, S. hemolyticus NRS50)?
Its MIC is 0.12 µg/mL.

And the MIC (S. hemolyticus; Table 3, S. hemolyticus NRS116)?
Its MIC is 0.25 µg/mL.

What about the MIC (S. hemolyticus; Table 4, S. hemolyticus NRS50) of the same compound?
The MIC was 0.12 µg/mL.

What about the MIC (S. hemolyticus; Table 4, S. hemolyticus NRS116) of the same compound?
Its MIC is 0.25 µg/mL.

What about the MIC (S. epidermidis; Staphylococcus epidermidis, Table 2, S. epidermidis NRS6, read-out: MIC) of the same compound?
The MIC was > 8 µg/mL.

What about the MIC (S. epidermidis; Staphylococcus epidermidis, Table 2, S. epidermidis NRS7, read-out: MIC) of the same compound?
Its MIC is 8 µg/mL.

And the MIC (S. epidermidis; Staphylococcus epidermidis, Table 2, S. epidermidis NRS8, read-out: MIC)?
Its MIC is > 8 µg/mL.

What about the MIC (S. epidermidis; Table 3, S. epidermidis NRS6) of the same compound?
The MIC was >8 µg/mL.

What about the MIC (S. epidermidis; Table 3, S. epidermidis NRS7) of the same compound?
Its MIC is 8 µg/mL.

And the MIC (S. epidermidis; Table 3, S. epidermidis NRS8)?
Its MIC is >8 µg/mL.

And the MIC (S. epidermidis; Table 4, S. epidermidis NRS6)?
The MIC was >8 µg/mL.

What about the MIC (S. epidermidis; Table 4, S. epidermidis NRS7) of the same compound?
Its MIC is 8 µg/mL.

And the MIC (S. epidermidis; Table 4, S. epidermidis NRS8)?
Its MIC is >8 µg/mL.

And the MIC50 (E. faecalis; E. faecalis, Van-R(11))?
The MIC50 was > 8 µg/mL.

And the MIC90 (E. faecalis; E. faecalis, Van-R(11))?
The MIC90 was > 8 µg/mL.

And the Mode (MIC) (E. faecalis; E. faecalis, Van-R(11))?
Its Mode (MIC) is > 8 µg/mL.

What about the MIC50 (E. faecalis; E. faecalis, Van-S (16)) of the same compound?
Its MIC50 is > 8 µg/mL.

And the MIC90 (E. faecalis; E. faecalis, Van-S (16))?
The MIC90 was > 8 µg/mL.

And the Mode (MIC) (E. faecalis; E. faecalis, Van-S (16))?
Its Mode (MIC) is > 8 µg/mL.

And the MIC (E. faecalis; ATCC29212, Table 2, E. faecalis ATCC 29212)?
Its MIC is 8 µg/mL.

And the MIC (E. faecalis; ATCC29212, Table 3, E. faecalis ATCC 29212)?
Its MIC is 8 µg/mL.

What about the MIC (E. faecalis; ATCC29212, Table 4, E. faecalis ATCC 29212) of the same compound?
The MIC was > 8 µg/mL.

And the MIC (E. faecalis; ATCC 51299 / VRE, Table 8, E. faecalis ATCC 51299 (VRE))?
Its MIC is 32 µg/mL.

And the MIC (E. faecalis; Table 2, E. faecalis 1)?
The MIC was 8 µg/mL.

What about the MIC (E. faecalis; Table 2, E. faecalis 7) of the same compound?
Its MIC is 8 µg/mL.

And the MIC (E. faecalis; Table 3, E. faecalis 1)?
Its MIC is 8 µg/mL.

What about the MIC (E. faecalis; Table 3, E. faecalis 7) of the same compound?
Its MIC is 8 µg/mL.

What about the MIC (E. faecalis; Table 4, E. faecalis 1) of the same compound?
The MIC was > 8 µg/mL.

What about the MIC (E. faecalis; Table 4, E. faecalis 7) of the same compound?
Its MIC is > 8 µg/mL.

And the MIC (E. faecalis; Table 8, E. faecalis 1)?
Its MIC is 32 µg/mL.

And the MIC (E. faecalis; Table 8, E. faecalis 7)?
Its MIC is 64 µg/mL.

And the MIC50 (E. faecalis; [5])?
The MIC50 was > 8 µg/mL.

And the MIC90 (E. faecalis; [5])?
Its MIC90 is > 8 µg/mL.

And the Mode (MIC) (E. faecalis; [5])?
Its Mode (MIC) is > 8 µg/mL.
